Measured values reported in patent publication US20060069132A1, “Azolecarboxamide herbicides” (priority 2004, published 2006).

Key:
[1] = tested on: large crabgrass; test: Test A pre-/postemergence herbicide test; type: in vivo, Digitaria sanguinalis
Method in brief: (§1)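 Visual injury rating on a 0–100 scale (0 no effect, 100 complete control) versus untreated controls, about ten days after treatment in greenhouse. Pre: directed soil spray onto seeded sandy loam. Post: spray to runoff on plants 2–10 cm tall at one- to two-leaf stage.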

[2] = tested on: velvetleaf; test: Test B pre-/postemergence herbicide test; type: in vivo, Abutilon theophrasti; conditions: for Velvetleaf plant response rating: postemergence
Method in brief: (§2)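 Evaluation is visual, comparing treated with control plants on a scale where 0 means no effect and 100 means full control. Treatments were preemergence, or postemergence on seedlings 2–18 cm tall, and held 13–15 days in the greenhouse.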

[3] = tested on: velvetleaf; test: Test A pre-/postemergence herbicide test; type: in vivo, Abutilon theophrasti
Method in brief: as §1

[4] = tested on: wheat; test: Test B postemergence herbicide test; type: in vivo, Triticum aestivum; set-up: key to Wheat plant response rating: 0 = no effect, 100 = complete control; conditions: postemergence
Method in brief: (§3)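 Plants grow to 1- to 4-leaf stage (2–18 cm) for postemergence spraying, or to 2-leaf stage for the paddy test. Formulated compound is applied. Greenhouse holding lasts 13–15 days. Response is scored visually relative to controls, 0 no effect to 100 complete control; a dash means no result.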

[5] = tested on: barnyardgrass; test: Test B flooded paddy test; type: in vivo, Echinochloa crus-galli; conditions: 1000 g ai/ha, scale 0 to 100 (0 no effect, 100 complete control)
Method in brief: (§4)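 Formulated test chemicals went onto postemergence plants measuring 2 to 18 cm, at one to four leaves. For the paddy assay, species had reached two leaves. Scoring took place 13–15 days later by eye, relative to untreated plants, using 0 for no effect up to 100 for full control.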

[6] = tested on: large crabgrass; test: Test B pre-/postemergence herbicide test; type: in vivo, Digitaria sanguinalis; conditions: for Crabgrass, Large plant response rating: postemergence
Method in brief: as §2

[7] = tested on: Surinam grass; test: Test B pre-/postemergence herbicide test; type: in vivo, Urochloa decumbens; conditions: for Surinam Grass plant response rating: postemergence
Method in brief: as §2

[8] = tested on: morningglory; test: Test B pre-/postemergence herbicide test; type: in vivo, Ipomoea coccinea; conditions: for Morningglory plant response rating: postemergence
Method in brief: (§5)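 Plants compared with untreated controls 13–15 days post-treatment and given a visual 0–100 injury score. Applications: preemergence to seeds; postemergence at 1- to 4-leaf (2–18 cm); paddy species flooded, 2-leaf stage. Vehicle non-phytotoxic, surfactant included.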

[9] = tested on: cocklebur; test: Test B pre-/postemergence herbicide test; type: in vivo, Xanthium strumarium; conditions: for Cocklebur plant response rating: postemergence
Method in brief: as §5

[10] = tested on: wild oat; test: Test B postemergence herbicide test; type: in vivo, Avena fatua; conditions: postemergence
Method in brief: as §3

[11] = tested on: rice; test: Test B pre-/postemergence herbicide test; type: in vivo, Oryza sativa; conditions: 0 = no effect, 100 = complete control, preemergence
Method in brief: as §5

[12] = tested on: corn; test: Test B pre-/postemergence herbicide test; type: in vivo, Zea mays; conditions: for Corn plant response rating: postemergence
Method in brief: as §2

[13] = tested on: giant foxtail; test: Test B pre-/postemergence herbicide test; type: in vivo, Setaria faberi; conditions: for Foxtail, Giant plant response rating: postemergence
Method in brief: as §2

[14] = tested on: pigweed; test: Test B pre-/postemergence herbicide test; type: in vivo, Amaranthus retroflexus; conditions: for Pigweed plant response rating: postemergence
Method in brief: as §2

[15] = tested on: barnyardgrass; test: Test A pre-/postemergence herbicide test; type: in vivo, Echinochloa crus-galli
Method in brief: as §1

[16] = tested on: ducksalad; test: Test B flooded paddy test; type: in vivo, Heteranthera limosa; conditions: 1000 g ai/ha, scale 0 to 100 (0 no effect, 100 complete control)
Method in brief: as §4

[17] = tested on: barnyardgrass; test: Test B pre-/postemergence herbicide test; type: in vivo, Echinochloa crus-galli; conditions: for Barnyardgrass plant response rating: postemergence
Method in brief: as §5

[18] = tested on: blackgrass; test: Test B postemergence herbicide test; type: in vivo, Alopecurus myosuroides; conditions: postemergence
Method in brief: as §4

[19] = tested on: rice; test: Test B flooded paddy test; type: in vivo, Oryza sativa; conditions: 1000 g ai/ha, scale 0 to 100 (0 no effect, 100 complete control)
Method in brief: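 Each value is a visual 0–100 response rating taken against controls 13 to 15 days after treatment in the greenhouse. Plants received formulated chemical postemergence at the 1- to 4-leaf stage or, in flooded paddy, at the 2-leaf stage.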

[20] = tested on: morningglory; test: Test A pre-/postemergence herbicide test; type: in vivo, Ipomoea spp.
Method in brief: as §1

[21] = tested on: giant foxtail; test: Test A pre-/postemergence herbicide test; type: in vivo, Setaria faberi
Method in brief: as §1

[22] = tested on: lambsquarters; test: Test B pre-/postemergence herbicide test; type: in vivo, Chenopodium album; conditions: for Lambsquarters plant response rating: postemergence
Method in brief: as §2

[23] = tested on: small flower umbrella sedge; test: Test B flooded paddy test; type: in vivo, Cyperus difformis; conditions: 1000 g ai/ha, scale 0 to 100 (0 no effect, 100 complete control)
Method in brief: as §4

[24] = tested on: redroot pigweed; test: Test A pre-/postemergence herbicide test; type: in vivo, Amaranthus retroflexus
Method in brief: as §1

[25] = Postemergence, 500 g ai/ha, 0 to 100 scale, 0 no effect, 100 complete control
[26] = Postemergence, 2000 g ai/ha, 0 to 100 scale, 0 no effect, 100 complete control
[27] = Preemergence, 2000 g ai/ha, visual rating, 0 to 100 scale (0 no effect, 100 complete control)
[28] = preemergence, 500 g ai/ha, visual injury, 0 to 100 scale (0 no effect, 100 complete control)
[29] = 125 g ai/ha, 0 = no effect, 100 = complete control, preemergence
[30] = 500 g ai/ha, visual rating, 0 = no effect, 100 = complete control, preemergence
[31] = 125 g ai/ha, visual rating, scale 0 (no effect) to 100 (complete control)
[32] = 500 g ai/ha, scale 0 to 100, 0 is no effect, 100 is complete control

Question: CCn1nc(C(C)(C)C)cc1C(=O)Nc1ccnc(C(=O)NCCF)c1 [Compound 284] was tested. Which “Crabgrass, Large plant response rating” value [1, 25] did it give?
Answer: 20

Question: And the “Plant response rating, Crabgrass, Large” value [1, 26]?
Answer: 20

Question: What about the “Crabgrass, Large plant response rating” value [1, 27] of the same compound?
Answer: 80

Question: And the “Crabgrass, Large plant response rating” value [1, 28]?
Answer: 15

Question: And the “Velvetleaf plant response rating (0 to 100 scale)” value [2, 29]?
Answer: 0

Question: What about the “Plant response rating, Velvetleaf” value [2, 30] of the same compound?
Answer: 60

Question: What about the “Velvetleaf plant response rating” value [2, 31] of the same compound?
Answer: 0

Question: And the “Velvetleaf plant response rating” value [2, 32]?
Answer: 0

Question: And the “Velvetleaf plant response rating” value [3, 25]?
Answer: 30

Question: And the “Plant response rating, Velvetleaf” value [3, 26]?
Answer: 35

Question: What about the “Velvetleaf plant response rating” value [3, 27] of the same compound?
Answer: 40

Question: And the “Velvetleaf plant response rating” value [3, 28]?
Answer: 10

Question: And the “Wheat plant response rating” value [4, 31]?
Answer: 20

Question: And the “Wheat plant response rating” value [4, 32]?
Answer: 30

Question: What about the “Barnyardgrass plant response rating” value [5] of the same compound?
Answer: 30

Question: What about the “Crabgrass, Large plant response rating (0 to 100 scale)” value [6, 29] of the same compound?
Answer: 0

Question: And the “Plant response rating, Crabgrass, Large” value [6, 30]?
Answer: 90

Question: And the “Crabgrass, Large plant response rating” value [6, 31]?
Answer: 0

Question: What about the “Crabgrass, Large plant response rating” value [6, 32] of the same compound?
Answer: 10

Question: And the “Surinam Grass plant response rating (0 to 100 scale)” value [7, 29]?
Answer: 0

Question: And the “Plant response rating, Surinam Grass” value [7, 30]?
Answer: 10

Question: What about the “Surinam Grass plant response rating” value [7, 31] of the same compound?
Answer: 0

Question: And the “Surinam Grass plant response rating” value [7, 32]?
Answer: 20

Question: And the “Morningglory plant response rating (0 to 100 scale)” value [8, 29]?
Answer: 0

Question: What about the “Plant response rating, Morningglory” value [8, 30] of the same compound?
Answer: 0

Question: What about the “Morningglory plant response rating” value [8, 31] of the same compound?
Answer: 0

Question: What about the “Morningglory plant response rating” value [8, 32] of the same compound?
Answer: 0

Question: What about the “Cocklebur plant response rating (0 to 100 scale)” value [9, 29] of the same compound?
Answer: 0

Question: And the “Plant response rating, Cocklebur” value [9, 30]?
Answer: 0

Question: What about the “Cocklebur plant response rating” value [9, 31] of the same compound?
Answer: 0

Question: What about the “Cocklebur plant response rating” value [9, 32] of the same compound?
Answer: 0

Question: What about the “Oat, Wild plant response rating” value [10, 31] of the same compound?
Answer: 10

Question: And the “Oat, Wild plant response rating” value [10, 32]?
Answer: 30

Question: What about the “Rice plant response rating (0 to 100 scale)” value ([11]; 125 g ai/ha) of the same compound?
Answer: 0

Question: And the “Plant response rating, Rice” value ([11]; 500 g ai/ha, visual rating)?
Answer: 20

Question: And the “Corn plant response rating (0 to 100 scale)” value [12, 29]?
Answer: 0

Question: And the “Plant response rating, Corn” value [12, 30]?
Answer: 0

Question: And the “Corn plant response rating” value [12, 31]?
Answer: 0

Question: And the “Corn plant response rating” value [12, 32]?
Answer: 10

Question: And the “Foxtail, Giant plant response rating (0 to 100 scale)” value [13, 29]?
Answer: 0

Question: And the “Plant response rating, Foxtail, Giant” value [13, 30]?
Answer: 10

Question: And the “Foxtail, Giant plant response rating” value [13, 31]?
Answer: 0

Question: And the “Foxtail, Giant plant response rating” value [13, 32]?
Answer: 0

Question: And the “Pigweed plant response rating (0 to 100 scale)” value [14, 29]?
Answer: 90

Question: What about the “Plant response rating, Pigweed” value [14, 30] of the same compound?
Answer: 100

Question: What about the “Pigweed plant response rating” value [14, 31] of the same compound?
Answer: 60

Question: And the “Pigweed plant response rating” value [14, 32]?
Answer: 70

Question: And the “Barnyardgrass plant response rating” value [15, 25]?
Answer: 30

Question: What about the “Plant response rating, Barnyardgrass” value [15, 26] of the same compound?
Answer: 60

Question: What about the “Barnyardgrass plant response rating” value [15, 27] of the same compound?
Answer: 85

Question: And the “Barnyardgrass plant response rating” value [15, 28]?
Answer: 10

Question: And the “Ducksalad plant response rating” value [16]?
Answer: 70

Question: What about the “Barnyardgrass plant response rating (0 to 100 scale)” value [17, 29] of the same compound?
Answer: 0

Question: What about the “Plant response rating, Barnyardgrass” value [17, 30] of the same compound?
Answer: 80

Question: What about the “Barnyardgrass plant response rating” value [17, 31] of the same compound?
Answer: 0

Question: And the “Barnyardgrass plant response rating” value [17, 32]?
Answer: 0

Question: What about the “Blackgrass plant response rating” value [18, 31] of the same compound?
Answer: 20

Question: What about the “Blackgrass plant response rating” value [18, 32] of the same compound?
Answer: 40

Question: And the “Rice plant response rating” value [19]?
Answer: 10

Question: What about the “Morningglory plant response rating” value [20, 25] of the same compound?
Answer: 10

Question: What about the “Plant response rating, Morningglory” value [20, 26] of the same compound?
Answer: 15

Question: What about the “Morningglory plant response rating” value [20, 27] of the same compound?
Answer: 5

Question: And the “Morningglory plant response rating” value [20, 28]?
Answer: 0

Question: What about the “Foxtail, Giant plant response rating” value [21, 25] of the same compound?
Answer: 20

Question: What about the “Plant response rating, Foxtail, Giant” value [21, 26] of the same compound?
Answer: 35

Question: And the “Foxtail, Giant plant response rating” value [21, 27]?
Answer: 55

Question: And the “Foxtail, Giant plant response rating” value [21, 28]?
Answer: 20

Question: What about the “Lambsquarters plant response rating (0 to 100 scale)” value [22, 29] of the same compound?
Answer: 90

Question: And the “Plant response rating, Lambsquarters” value [22, 30]?
Answer: 100

Question: What about the “Lambsquarters plant response rating” value [22, 31] of the same compound?
Answer: 50

Question: What about the “Lambsquarters plant response rating” value [22, 32] of the same compound?
Answer: 50

Question: And the “Sedge, Umbrella plant response rating” value [23]?
Answer: 0

Question: And the “Pigweed plant response rating” value [24, 25]?
Answer: 95

Question: What about the “Plant response rating, Pigweed” value [24, 26] of the same compound?
Answer: 100

Question: And the “Pigweed plant response rating” value [24, 27]?
Answer: 100

Question: And the “Pigweed plant response rating” value [24, 28]?
Answer: 85
